Measured values from patent US11542302B2, “Modulators of melanocortin receptors for the treatment of depression and anxiety” (ARIZONA BOARD OF REGENTS ON BEHALF OF THE UNIVERSITY OF …, priority 2015, dated 2023).

Molecular target: hMC5R (Homo sapiens, UniProt P33032)
Assay: hMC5R intracellular cAMP accumulation
Format: cell-based
Details: relative to MT-II

Sequence of hMC5R (P33032 whole entry): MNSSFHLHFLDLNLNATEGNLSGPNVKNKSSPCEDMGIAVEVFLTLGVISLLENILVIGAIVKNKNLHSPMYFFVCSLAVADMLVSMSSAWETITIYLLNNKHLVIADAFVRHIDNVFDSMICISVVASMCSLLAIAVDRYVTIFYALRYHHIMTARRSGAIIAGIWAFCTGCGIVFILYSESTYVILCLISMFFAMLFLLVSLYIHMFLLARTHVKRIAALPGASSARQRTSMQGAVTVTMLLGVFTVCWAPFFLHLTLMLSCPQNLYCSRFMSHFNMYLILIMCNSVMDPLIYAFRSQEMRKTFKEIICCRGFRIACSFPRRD

For `N=C(N)NCCC[C@@H]1NC(=O)[C@@H](Cc2ccccc2)NC(=O)[C@H](CC2CCCCC2)NC(=O)c2cc([N+](=O)[O-])ccc2SC[C@@H](C(N)=O)NC(=O)[C@H](Cc2c[nH]c3ccccc23)NC1=O` [compound 2], the “% Act at 10 μM (% of cAMP produced at 10 μM ligand concentration, in relation to MT-II)” value was 0%.
